Data reported in patent publication US20250144067A1, “PERSONALIZED STARVATION THERAPY FOR CANCER” (Faeth Therapeutics, Inc., priority 2021, published 2025).
Where a name gives a salt, the structure may show the parent alone.

Tests used:
[1] = test system: NCI-H292 lung cancer cells; experiment: FDA drug screening, complete media vs cholesterol-free media without statin (TABLE 1); assay type: cell-based, human
[2] = test system: NCI-H292 lung cancer cells; experiment: FDA drug screening, complete media vs cholesterol-free media with simvastatin (TABLE 2); assay type: cell-based, human; settings: for Cholesterol-free media + simvastatin (0.04 μM) / Complete Media: NCI-H292 cells
[3] = Complete minus Cholesterol-free, […]
[4] = NCI-H292 cells, cholesterol-free media without statin, FDA drug library screen
[5] = NCI-H292 cells, complete media, FDA drug library screen
[6] = FDA drug library screen, cholesterol-free media with simvastatin 0.04 μM
[7] = FDA drug library screen, complete media
[8] = complete media vs cholesterol-free media + simvastatin (0.04 μM), […]
[9] = Complete minus Cholesterol-free, >0 enhanced anti-cancer activity, about 0 neutral, <0 antagonist
[10] = complete media vs cholesterol-free media + simvastatin (0.04 μM), >0 enhanced anti-cancer activity, about 0 neutral, <0 antagonist
[11] = Complete minus Cholesterol-free, greater than 0 enhanced anti-cancer activity, about 0 neutral, below 0 antagonists
[12] = NCI-H292 cells in cholesterol-free media without statin
[13] = NCI-H292 cells in complete media
[14] = cholesterol-free media with simvastatin 0.04 μM, FDA drug library screen (TABLE 2)
[15] = complete media, FDA drug library screen (TABLE 2)
[16] = complete vs cholesterol-free media, […]
[17] = FDA library drug in cholesterol-free media with simvastatin 0.04 μM
[18] = FDA library drug in complete media
[19] = NCI-H292 cells, cholesterol-free media without statin
[20] = drug in cholesterol-free media with simvastatin 0.04 μM
[21] = complete media minus cholesterol-free media + simvastatin, >0 enhanced anti-cancer activity, about 0 neutral, <0 antagonist
[22] = cholesterol-free media with simvastatin 0.04 μM, […]
[23] = complete media minus cholesterol-free media + simvastatin, […]
[24] = Complete minus Cholesterol-free, greater than 0 enhanced anti-cancer activity, about 0 neutral, below 0 antagonist
[25] = NCI-H292 cells, FDA drug library screen, cholesterol-free media without statin
[26] = NCI-H292 cells, FDA drug library screen, complete media
[27] = complete vs cholesterol-free media, >0 enhanced anti-cancer activity, about 0 neutral, <0 antagonist

SMILES: COc1ccc(CCN(C)CCC[C@](C#N)(c2ccc(OC)c(OC)c2)C(C)C)cc1OC.Cl [(R)-Verapamil (hydrochloride)]
- Difference [1, 3]: 0.02
- Cholesterol-free [1, 4]: 0.8697
- Complete [1, 5]: 0.8867
- Cholesterol-free media + simvastatin (0.04 μM) [2, 6]: 1.005
- Complete Media [2, 7]: 0.92
- Difference [2, 8]: −0.08

SMILES: CC[C@@]1(O)C(=O)OCc2c1cc1n(c2=O)Cc2cc3cc(O)ccc3nc2-1 [(S)-10-Hydroxycamptothecin]
- Difference [1, 3]: 0.01
- Cholesterol-free [1, 4]: 0.01962
- Complete [1, 5]: 0.02742
- Cholesterol-free media + simvastatin (0.04 μM) [2, 6]: 0.2337
- Complete Media [2, 7]: 0.138
- Difference [2, 8]: −0.10

SMILES: CC(C)Cc1ccc([C@H](C)C(=O)O)cc1 [(S)-(+)-Ibuprofen]
- Difference [1, 9]: −0.01
- Cholesterol-free [1, 4]: 1.011
- Complete [1, 5]: 0.9982
- Complete Media ([2]; drug in complete media): 0.9605
- Difference [2, 10]: −0.26

SMILES: CC(C)NC[C@H](O)COc1cccc2ccccc12.Cl [(S)-(−)-Propranolol (hydrochloride)]
- Difference [1, 11]: −0.61
- Cholesterol-free [1, 12]: 1.5
- Complete [1, 13]: 0.8879
- Cholesterol-free media + simvastatin (0.04 μM) [2, 14]: 1.665
- Complete Media [2, 15]: 1.663
- Difference ([2]; complete media minus cholesterol-free media + simvastatin (0.04 μM), >0 enhanced anti-cancer activity, about 0 neutral, <0 antagonist): 0.00

SMILES: C[C@H](Oc1cc(-c2cnn(C3CCNCC3)c2)cnc1N)c1c(Cl)ccc(F)c1Cl [(S)-Crizotinib]
- Difference [1, 3]: 0.02
- Cholesterol-free [1, 4]: 1.253
- Complete [1, 5]: 1.275
- Cholesterol-free media + simvastatin (0.04 μM) [2, 6]: 1.094
- Complete Media [2, 7]: 0.9518
- Difference [2, 8]: −0.14

SMILES: N[C@@H](CCC(=O)O)C(=O)O [(S)-Glutamic acid]
- Cholesterol-free [1, 4]: 1.299
- Complete [1, 5]: 1.635
- Difference [1, 16]: 0.34
- Cholesterol-free media + simvastatin (0.04 μM) [2, 6]: 0.9378
- Complete Media [2, 7]: 0.8445
- Difference [2, 8]: −0.09

SMILES: C#CCN[C@H]1CCc2ccccc21 [(S)-Rasagiline]
- Difference [1, 9]: 0.05
- Cholesterol-free [1, 4]: 1.001
- Complete [1, 5]: 1.048
- Cholesterol-free media + simvastatin (0.04 μM) [2, 17]: 1.283
- Complete Media [2, 18]: 0.8996
- Difference [2, 10]: −0.38

SMILES: COc1cc2nc(N3CCN(C(=O)[C@@H]4CCCO4)CC3)nc(N)c2cc1OC [(S)-Terazosin]
- Difference [1, 9]: 0.01
- Cholesterol-free [1, 4]: 0.9099
- Complete [1, 5]: 0.9163
- Cholesterol-free media + simvastatin (0.04 μM) [2, 6]: 0.9768
- Complete Media [2, 7]: 0.8794
- Difference [2, 10]: −0.10

SMILES: COc1ccc(CCN(C)CCC[C@@](C#N)(c2ccc(OC)c(OC)c2)C(C)C)cc1OC.Cl [(S)-Verapamil (hydrochloride)]
- Difference [1, 3]: −0.20
- Cholesterol-free [1, 19]: 1.169
- Complete ([1]; NCI-H292 cells, complete media): 0.9711
- Cholesterol-free media + simvastatin (0.04 μM) [2, 20]: 1.086
- Complete Media ([2]; drug in complete media): 0.9249
- Difference [2, 8]: −0.16

SMILES: CN1CCN(CC/C=C2/c3ccccc3Sc3ccc(S(=O)(=O)N(C)C)cc32)CC1 [(Z)-Thiothixene]
- Difference [1, 9]: −0.29
- Cholesterol-free [1, 19]: 1.344
- Complete ([1]; NCI-H292 cells, complete media): 1.05
- Cholesterol-free media + simvastatin (0.04 μM) ([2]; cholesterol-free media with simvastatin 0.04 μM, cell growth value in FDA drug screen): 0.9883
- Complete Media ([2]; complete media, cell growth value in FDA drug screen): 1.062
- Difference [2, 21]: 0.07

SMILES: O=C1C=C2C=C[C@@H]3C[C@@]2(O1)[C@H]1CCCCN31 [(−)-Securinine]
- Cholesterol-free [1, 4]: 0.7572
- Complete [1, 5]: 0.9271
- Difference [1, 16]: 0.17
- Cholesterol-free media + simvastatin (0.04 μM) [2, 22]: 0.8712
- Complete Media ([2]; complete media, […]): 0.9865
- Difference [2, 23]: 0.12

SMILES: C1CCN2C[C@@H]3C[C@@H](CN4CCCC[C@@H]34)[C@H]2C1 [(−)-Sparteine]
- Difference [1, 3]: −0.60
- Cholesterol-free [1, 12]: 1.432
- Complete [1, 13]: 0.8366
- Cholesterol-free media + simvastatin (0.04 μM) [2, 22]: 1.054
- Complete Media ([2]; complete media, […]): 1.106
- Difference [2, 23]: 0.05

SMILES: Nc1ncnc2c1ncn2[C@@H]1O[C@H](COP(=O)(O)OP(=O)(O)OP(=O)(O)O)[C@@H](O)[C@H]1O [ATP]
- Difference [1, 24]: −0.10
- Cholesterol-free [1, 25]: 1.57
- Complete [1, 26]: 1.466
- Cholesterol-free media + simvastatin (0.04 μM) [2, 20]: 1.049
- Complete Media ([2]; drug in complete media): 0.8041
- Difference [2, 10]: −0.24

SMILES: CN(C)C(=O)c1ccc(S(=O)(=O)c2ccc(NC(=O)[C@@](C)(O)C(F)(F)F)c(Cl)c2)cc1 [AZD7545]
- Difference [1, 3]: −0.01
- Cholesterol-free [1, 4]: 0.721
- Complete [1, 5]: 0.7125
- Cholesterol-free media + simvastatin (0.04 μM) [2, 6]: 0.8136
- Complete Media [2, 7]: 1.088
- Difference [2, 23]: 0.27

SMILES: Nc1nc(NC2CC2)c2ncn([C@H]3C=C[C@@H](CO)C3)c2n1.Nc1nc(NC2CC2)c2ncn([C@H]3C=C[C@@H](CO)C3)c2n1.O=S(=O)(O)O [Abacavir (sulfate)]
- Difference [1, 9]: 0.06
- Cholesterol-free [1, 4]: 0.4233
- Complete [1, 5]: 0.4872
- Cholesterol-free media + simvastatin (0.04 μM) [2, 6]: 0.2456
- Complete Media [2, 7]: 0.4029
- Difference [2, 21]: 0.16

SMILES: Nc1nc(NC2CC2)c2ncn([C@H]3C=C[C@@H](CO)C3)c2n1 [Abacavir]
- Cholesterol-free [1, 4]: 0.6425
- Complete [1, 5]: 1.2
- Difference [1, 27]: 0.56
- Cholesterol-free media + simvastatin (0.04 μM) [2, 6]: 1.851
- Complete Media [2, 7]: 2.026
- Difference [2, 21]: 0.18

SMILES: CCN1CCN(Cc2ccc(Nc3ncc(F)c(-c4cc(F)c5nc(C)n(C(C)C)c5c4)n3)nc2)CC1 [Abemaciclib]
- Cholesterol-free [1, 4]: 0.7212
- Complete [1, 5]: 0.8498
- Difference [1, 27]: 0.13
- Cholesterol-free media + simvastatin (0.04 μM) [2, 17]: 1.011
- Complete Media [2, 18]: 0.6686
- Difference [2, 10]: −0.34

SMILES: CC(=O)O[C@H]1CC[C@@]2(C)C(=CC[C@@H]3[C@@H]2CC[C@]2(C)C(c4cccnc4)=CC[C@@H]32)C1 [Abiraterone acetate]
- Cholesterol-free [1, 4]: 0.5232
- Complete [1, 5]: 1.307
- Difference [1, 27]: 0.78
- Cholesterol-free media + simvastatin (0.04 μM) [2, 17]: 1.209
- Complete Media [2, 18]: 0.9
- Difference [2, 10]: −0.31

SMILES: C[C@]12CC[C@H](O)CC1=CC[C@@H]1[C@@H]2CC[C@]2(C)C(c3cccnc3)=CC[C@@H]12 [Abiraterone]
- Cholesterol-free [1, 4]: 1.119
- Complete [1, 5]: 1.371
- Difference [1, 27]: 0.25
- Cholesterol-free media + simvastatin (0.04 μM) [2, 17]: 1.907
- Complete Media [2, 18]: 1.473
- Difference [2, 10]: −0.43

SMILES: CC#CC(=O)N1CCC[C@H]1c1nc(-c2ccc(C(=O)Nc3ccccn3)cc2)c2c(N)nccn12 [Acalabrutinib]
- Cholesterol-free [1, 4]: 0.7449
- Complete [1, 5]: 0.989
- Difference [1, 27]: 0.24
- Cholesterol-free media + simvastatin (0.04 μM) [2, 6]: 1.302
- Complete Media [2, 7]: 1.618
- Difference [2, 21]: 0.32

SMILES: CC(=O)NCCCS(=O)(=O)O [Acamprosate (calcium)]
- Difference [1, 3]: 0.03
- Cholesterol-free [1, 4]: 1.751
- Complete [1, 5]: 1.779
- Cholesterol-free media + simvastatin (0.04 μM) [2, 14]: 1.34
- Complete Media [2, 15]: 1.328
- Difference ([2]; complete media minus cholesterol-free media + simvastatin (0.04 μM), […]): −0.01

SMILES: C[C@H]1O[C@H](O[C@H]2[C@H](O)[C@@H](O)[C@@H](O[C@H]3[C@H](O)[C@@H](O)C(O)O[C@@H]3CO)O[C@@H]2CO)[C@H](O)[C@@H](O)[C@@H]1N[C@H]1C=C(CO)[C@@H](O)[C@H](O)[C@H]1O (stereo partly shown) [Acarbose]
- Difference [1, 24]: −0.13
- Cholesterol-free [1, 25]: 1.056
- Complete [1, 26]: 0.9216
- Cholesterol-free media + simvastatin (0.04 μM) [2, 6]: 0.841
- Difference [2, 21]: 0.31

SMILES: CCCC(=O)Nc1ccc(OCC(O)CNC(C)C)c(C(C)=O)c1 (stereo not shown) [Acebutolol (hydrochloride)]
- Difference [1, 11]: −0.56
- Cholesterol-free [1, 12]: 1.541
- Complete [1, 13]: 0.9763
- Cholesterol-free media + simvastatin (0.04 μM) [2, 6]: 1.195
- Complete Media [2, 7]: 1.105
- Difference [2, 10]: −0.09
